Experiments:
[1] = target: human cathepsin K (UniProt P43236); assay: Cathepsin K Assay (hrbCat K); assay type: biochemical; details: Z-Leu-Arg-AMC substrate, pH 5.5, 15 min preincubation; read-out: hrbCat K (IP (nM))
In short: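 Human cathepsin K (0.4 nM) was preincubated 15 min at room temperature with compound in 50 mM MES pH 5.5, 2.5 mM EDTA, 2.5 mM DTT and 10% DMSO. Inhibition was fitted to a dose-response model.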

[2] = target: T1, human cathepsin F (Homo sapiens, UniProt Q9UBX1); assay: Cathepsin F assay (hCat F); assay type: biochemical; details: Z-Phe-Arg-AMC substrate, pH 5.5, 15 min preincubation; read-out: hCat F (IP (nM))
T1 sequence (Q9UBX1 271-484): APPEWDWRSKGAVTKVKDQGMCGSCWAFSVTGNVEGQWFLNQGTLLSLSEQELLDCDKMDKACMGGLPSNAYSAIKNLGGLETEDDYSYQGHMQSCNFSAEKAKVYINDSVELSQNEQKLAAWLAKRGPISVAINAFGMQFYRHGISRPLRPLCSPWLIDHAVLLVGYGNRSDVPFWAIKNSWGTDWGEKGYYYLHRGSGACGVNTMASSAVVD
In short: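 AMC release from Z-Phe-Arg-AMC, added at 8 μM, was monitored fluorometrically (360/460 nm) for 20 min after 10 nM enzyme and compound had been preincubated 15 min at room temperature. Buffer: MES 50 mM pH 5.5, EDTA and DTT 2.5 mM each, 10% DMSO. Compound DMSO dilutions spanned 500–0.025 μM (3-fold). Dose-response fitting gave % inhibition.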

IC50 [1] | IC50 [2] | SMILES
1.5 nM | 1110 nM | N#CC1(NC(=O)[C@@H]2CCCC[C@H]2c2nc(-c3ccc(C4CCOCC4)cc3)sc2-c2ccc(N3CCS(=O)(=O)CC3)cc2)CC1 [Example 121, (1S,2R)-N-(1-cyanocyclopropyl)-2-(5-(4-(1,1-dioxidothiomorpho-lino)phenyl)-2-(4-(tetrahydro-2H-pyran-4-yl)phenyl)thiazol-4-yl)cyclohexane-carboxamide]
1.7 nM | 2490 nM | N#CCNC(=O)[C@@H]1C[C@@H](F)CC[C@H]1c1nc(-c2cncc(F)c2)sc1-c1ccc(N2CCS(=O)(=O)CC2)cc1 [Example 123, (1R,2R,5S)-N-(cyanomethyl)-2-(5-(4-(1,1-dioxidothiomorpho-lino)phenyl)-2-(5-fluoropyridin-3-yl)thiazol-4-yl)-5-fluorocyclohexane-carboxamide]
1.8 nM | 3120 nM | N#CCNC(=O)[C@@H]1C[C@@H](F)CC[C@H]1c1nc(-c2ccc(F)cn2)sc1-c1ccc(N2CCS(=O)(=O)CC2)cc1 [Example 124, (1R,2R,5S)-N-(cyanomethyl)-2-(5-(4-(1,1-dioxidothiomorpho-lino)phenyl)-2-(5-fluoropyridin-2-yl)thiazol-4-yl)-5-fluorocyclohexane-carboxamide]
7.5 nM | 310 nM | CS(=O)(=O)c1ccc(-c2sc(-c3cncc(F)c3)nc2[C@@H]2CCCC[C@H]2C(=O)NC2(C#N)CC2)cc1 [Example 125, (1R,2R)-N-(1-cyanocyclopropyl)-2-(2-(5-fluoropyridin-3-yl)-5-(4-(methylsulfonyl)phenyl)thiazol-4-yl)cyclohexane-carboxamide]
1.8 nM | ≥ 10000 nM | Cc1ncc(-c2nc([C@@H]3CC[C@H](F)C[C@H]3C(=O)NC3(C#N)CC3)c(-c3ccc(N4CCS(=O)(=O)CC4)cc3)s2)s1 [Example 128, (1R,2R,5S)-N-(1-cyanocyclopropyl)-2-(5-(4-(1,1-dioxidothiomorpho-lino)phenyl)-2′-methyl-[2,5′-bithiazol]-4-yl)-5-fluorocyclohexane-carboxamide]
0.9 nM | 1000 nM | C[C@@H](C#N)NC(=O)[C@@H]1C[C@@H](F)CC[C@H]1c1nc(-c2ccc(F)cn2)sc1-c1ccc(N2CCS(=O)(=O)CC2)cc1 [Example 130, (1R,2R,5S)-N-((S)-1-cyanoethyl)-2-(5-(4-(1,1-dioxidothiomorpho-lino)phenyl)-2-(5-fluoropyridin-2-yl)thiazol-4-yl)-5-fluorocyclohexane-carboxamide]
39.7 nM | 1790 nM | CS(=O)(=O)c1ccc(-c2sc(-c3cccnc3)nc2[C@@H]2CCCC[C@H]2C(=O)NC2(C#N)CC2)cc1 [Example 131, (1R,2R)-N-(1-cyanocyclopropyl)-2-(5-(4-(methylsulfonyl)phenyl)-2-(pyridin-3-yl)thiazol-4-yl)cyclohexane-carboxamide]
1.9 nM | 1660 nM | N#CC1(NC(=O)[C@@H]2CCCC[C@H]2c2nc(-c3ccc(F)cn3)sc2-c2ccc(N3CCS(=N)(=O)CC3)cc2)CC1 [Example 136, (1R,2R)-N-(1-cyanocyclopropyl)-2-(2-(5-fluoropyridin-2-yl)-5-(4-(1-imino-1-oxidothiomorpholino)phenyl)thiazol-4-yl)cyclohexane-carboxamide]
1.9 nM | 2130 nM | CN=S1(=O)CCN(c2ccc(-c3sc(-c4cncc(F)c4)nc3[C@@H]3CCCC[C@H]3C(=O)NC3(C#N)CC3)cc2)CC1 [Example 138, (1R,2R)-N-(1-cyanocyclopropyl)-2-(2-(5-fluoropyridin-3-yl)-5-(4-(1-(methylimino)-1-oxidothiomorpholino)phenyl)thiazol-4-yl)cyclohexane-carboxamide]
3.3 nM | 5280 nM | N#CC1(NC(=O)[C@@H]2CCCC[C@H]2c2nc(N3CCO[C@@H](C(F)(F)F)C3)sc2-c2ccc(N3CCS(=O)(=O)CC3)cc2)CC1 [Example 144, (1R,2R)-N-(1-cyanocyclopropyl)-2-(5-(4-(1,1-dioxidothiomorpho-lino)phenyl)-2-((R)-2-(trifluoromethyl)morpholino)thiazol-4-yl)cyclohexane-carboxamide]

The next lines start with the molecule.

SMILES | IC50 [1] | IC50 [2]
N#CC1(NC(=O)[C@@H]2CCCC[C@H]2c2nc(-c3ccc4c(c3)OCCO4)sc2-c2ccc(N3CCS(=O)(=O)CC3)cc2)CC1 [Example 120, (1R,2R)-N-(1-cyanocyclopropyl)-2-(2-(2,3-dihydrobenzo[b][1,4]dioxin-6-yl)-5-(4-(1,1-dioxidothiomorpho-lino)phenyl)thiazol-4-yl)cyclohexane-carboxamide] | 1.4 nM | 1110 nM
N#CC1(NC(=O)[C@@H]2CCCC[C@H]2c2nc(-c3ccc(F)c(C4CCOCC4)c3)sc2-c2ccc(N3CCS(=O)(=O)CC3)cc2)CC1 [Example 122, (1R,2R)-N-(1-cyanocyclopropyl)-2-(5-(4-(1,1-dioxidothiomorpho-lino)phenyl)-2-(4-fluoro-3-(tetrahydro-2H-pyran-4-yl)phenyl)thiazol-4-yl)cyclohexane-carboxamide] | 2.2 nM | 1110 nM
C[C@H](C#N)NC(=O)[C@@H]1C[C@@H](F)CC[C@H]1c1nc(-c2ccc(F)cn2)sc1-c1ccc(N2CCS(=O)(=O)CC2)cc1 [Example 129, (1R,2R,5S)-N-((R)-1-cyanoethyl)-2-(5-(4-(1,1-dioxidothiomorpho-lino)phenyl)-2-(5-fluoropyridin-2-yl)thiazol-4-yl)-5-fluorocyclohexane-carboxamide] | 25.5 nM | ≥ 10000 nM
N#CC1(NC(=O)[C@@H]2CCCC[C@H]2c2nc(-c3cccc(C(F)(F)F)n3)sc2-c2ccc(N3CCS(=O)(=O)CC3)cc2)CC1 [Example 132, (1R,2R)-N-(1-cyanocyclopropyl)-2-(5-(4-(1,1-dioxidothiomorpho-lino)phenyl)-2-(6-(trifluoromethyl)pyridin-2-yl)thiazol-4-yl)cyclohexane-carboxamide] | 1.8 nM | 2340 nM
CC1(c2nc([C@@H]3CCCC[C@H]3C(=O)NC3(C#N)CC3)c(-c3ccc(N4CCS(=O)(=O)CC4)cc3)s2)CCOCC1 [Example 133, (1R,2R)-N-(1-cyanocyclopropyl)-2-(5-(4-(1,1-dioxidothiomorpho-lino)phenyl)-2-(4-methyltetrahydro-2H-pyran-4-yl)thiazol-4-yl)cyclohexane-carboxamide] | 4.9 nM | ≥ 10000 nM
N#CC1(NC(=O)[C@@H]2CCCC[C@H]2c2nc(-c3cncc(F)c3)sc2-c2ccc(N3CCS(=N)(=O)CC3)cc2)CC1 [Example 135, (1R,2R)-N-(1-cyanocyclopropyl)-2-(2-(5-fluoropyridin-3-yl)-5-(4-(1-imino-1-oxidothiomorpholino)phenyl)thiazol-4-yl)cyclohexane-carboxamide] | 1.2 nM | 1560 nM
CN=S1(=O)CCN(c2ccc(-c3sc(-c4ccc(F)cn4)nc3[C@@H]3CCCC[C@H]3C(=O)NC3(C#N)CC3)cc2)CC1 [Example 139, (1R,2R)-N-(1-cyanocyclopropyl)-2-(2-(5-fluoropyridin-2-yl)-5-(4-(1-(methylimino)-1-oxidothiomorpholino)phenyl)thiazol-4-yl)cyclohexane-carboxamide] | 3.3 nM | 2750 nM
N#CC1(NC(=O)[C@@H]2C[C@@H](F)CC[C@H]2c2nc(-c3ccc(F)cn3)sc2-c2ccc(N3CCS(=N)(=O)CC3)cc2)CC1 [Example 141, (1R,2R,5S)-N-(1-cyanocyclopropyl)-5-fluoro-2-(2-(5-fluoropyridin-2-yl)-5-(4-(1-imino-1-oxidothiomorpholino)phenyl)thiazol-4-yl)cyclohexane-carboxamide] | 2.3 nM | 1000 nM
CC1(C)CN(c2nc([C@@H]3CCCC[C@H]3C(=O)NC3(C#N)CC3)c(-c3ccc(N4CCS(=O)(=O)CC4)cc3)s2)CCO1 [Example 142, (1R,2R)-N-(1-cyanocyclopropyl)-2-(2-(2,2-dimethylmorpholino)-5-(4-(1,1-dioxidothiomorpho-lino)phenyl)thiazol-4-yl)cyclohexane-carboxamide] | 5.8 nM | 3400 nM
CNC(=O)N1CC(c2ccc(-c3sc(-c4ccc(F)cc4)nc3[C@@H]3CCCC[C@H]3C(=O)NC3(C#N)CC3)cc2)C1 [Example 143, 3-(4-(4-((1R,2R)-2-((1-cyanocyclopropyl)carbamoyl)cyclohex-yl)-2-(4-fluorophenyl)thiazol-5-yl)phenyl)-N-methylazetidine-1-carboxamide] | 2 nM | 134 nM
N#CC1(NC(=O)[C@@H]2CCCC[C@H]2c2nc(N3CCO[C@H](C(F)(F)F)C3)sc2-c2ccc(N3CCS(=O)(=O)CC3)cc2)CC1 [Example 145, (1R,2R)-N-(1-cyanocyclopropyl)-2-(5-(4-(1,1-dioxidothiomorpho-lino)phenyl)-2-((S)-2-(trifluoromethyl)morpholino)thiazol-4-yl)cyclohexane-carboxamide] | 4.3 nM | 7050 nM
N#CC1(NC(=O)[C@@H]2CCCC[C@H]2c2nc(C3CCCOC3)sc2-c2ccc(N3CCS(=O)(=O)CC3)cc2)CC1 (stereo partly drawn) [Example 146, (1R,2R)-N-(1-cyanocyclopropyl)-2-(5-(4-(1,1-dioxidothiomorpho-lino)phenyl)-2-(tetrahydro-2H-pyran-3-yl)thiazol-4-yl)cyclohexane-carboxamide] | 4.6 nM | 1000 nM
